Assays:
[1] = system: epilepsy seizures in children presenting with Dravet syndrome; conditions: add-on therapy to valproate and clobazam; cited from earlier work
Wistar kyoto (WKY) rats [2] = experiment: Open field test, juvenile WKY control rats; format: in vivo, rat; conditions: 200 mg/kg i.p., second 10 minutes period, vs vehicle
Method: (§1) Juvenile (25-30 days old, 80-120 g) or adolescent (40-45 days old, 140-160 g) male Wistar SHR rats or the control strain Wistar kyoto (WKY) rats, from River Germany, were used in this study. They were housed 2 per cage (Techniplast ref. 1291), and maintained in a 12 h light/dark cycle (light ON at 7 AM). Food and water were provided ad libitum. Rats were acclimated to the animal facilities at least 5 days before testing started. The experiments were conducted in accordance with the European Recommendations (directive 86/609/EEC) for the use and care of laboratory animals.
Rats are placed in the middle of an open field (a closed arena of 1 m×1 m), and recorded with a videotracking system (Videotrack, Viewpoint S.A., Lyon France). The arena is separated in 9 equivalent zones on the analysis software. Illumination intensity is set around 30 lux. The number of rearings and zone changes is recorded during 2 consecutive 10 minutes periods. The test is started forty five minutes after vehicle or STP injection. For juvenile rats (around 25 days old, n=30 SHR rats, n=30 WKY rats), each rat was randomly assigned to a test group and tested once. […]
(§2) Data are represented as the mean±standard error of mean (S.E.M.). The difference between Stiripentol and vehicle treated rats, was assessed with an ANOVA or repeated measures ANOVA (one factor repetition). […]

[3] = several animal models; cited from earlier work
[4] = system: Spontaneously Hypertensive Rat (SHR); experiment: Open field test, juvenile SHR rats; format: in vivo; conditions: 200 mg/kg i.p., second 10 minutes period, vs vehicle, p<0.001
Description: The inventors have examined the potential new therapeutic application of Stiripentol (STP, Diacomit®) in attention deficit and hyperactivity disorder (ADHD). For this, the effect of an acute administration of Stiripentol, on hyperactivity in rats was studied. The model chosen for this study is the Spontaneously Hypertensive Rat (SHR), a rat model that has been described as a model for hyperactivity (Sagvolden et al. (1992) Behav. Neural. Biol. 58:103-112; Sagvolden et al. (2009) Neuropharmacology 57:619-626; Davids et al. (2003) Brain Res. Brain Res. Rev. 42:1-21) and three behavioral tests were run: an open field test, an actimetry test and a grip test.
Juvenile (25-30 days old, 80-120 g) or adolescent (40-45 days old, 140-160 g) male Wistar SHR rats or the control strain Wistar kyoto (WKY) rats, from River Germany, were used in this study. […]
Rats are placed in the middle of an open field (a closed arena of 1 m×1 m), and recorded with a videotracking system (Videotrack, Viewpoint S.A., Lyon France). […] The number of rearings and zone changes is recorded during 2 consecutive 10 minutes periods. […]
as §2

[5] = system: WKY (control) or SHR adolescent rats; experiment: Grip test (muscular strength); format: in vivo, rat; conditions: WKY and SHR rats (40-45 days old), 200 mg/kg i.p., 1 hour after administration, p=0.058, listed as STP
Method: The grip test measures the muscular strength of the animal. This test is used to identify myorelaxant properties of compounds. An electronic system is used (Bioseb) to measure the force developed by a rat grasping a T-shape bar with its forelimb. Five consecutive measures are taken, data are expressed as mean±standard error of mean. […] Measures are taken 60 minutes after intraperitoneal (i.p.) injection.
Stiripentol (batch 176, dissolved in 5% tween 80 in 0.9% NaCl) was administered i.p. at the dose of 200 mg/kg with an injection volume of 10 ml/kg.
Data are represented as the mean±standard error of mean (S.E.M.). The difference between Stiripentol and vehicle treated rats, was assessed with an ANOVA or repeated measures ANOVA (one factor repetition). Significance was set at p<0.05 (Sigma Stat, v3.5, SPSS, Chicago, USA).

[6] = system: Spontaneously Hypertensive Rat (SHR); experiment: Actimetry (opto-varimex), juvenile SHR rats; format: in vivo; conditions: 200 mg/kg i.p., vs vehicle
Method: as §1
(§3) Animals are placed in the opto-varimex system (Plexiglas arena, 42×42 cm, Columbus Instruments, Columbus, Ohio), an automated system to quantify their activity as horizontal or vertical movements. Animals are habituated to the behavioral room for one hour before the beginning of the test, illumination intensity is around 400 lux. Activity is recorded immediately after placing the animal in the system, forty five minutes after injection, for a one hour period. Animals are assigned to a test group and tested only once. […]
as §2

Wistar kyoto (WKY) rats [7] = experiment: Actimetry (opto-varimex), juvenile WKY control rats; format: in vivo, rat; conditions: 200 mg/kg i.p., vs vehicle
Method: as §1, §3, §2

In the case of `CC(C)(C)C(O)/C=C/c1ccc2c(c1)OCO2` (racemic) [Stiripentol, 1-penten-3-ol,1-(1,3-benzodioxol)-4,4-dimethyl], the “efficacy in controlling epilepsy seizures (responder rate)” value [1] is given as “demonstrated”, the “rearing activity in open field” value (Wistar kyoto (WKY) rats [2]) is given as “no effect” and the anticonvulsant activity [3] is given as “shown anticonvulsant activity”. For the same molecule, the “rearing activity in open field” value ([4]; SHR juvenile rats (25 days old)) was “significantly decreases”, the “number of zone changes in open field” value ([4]; SHR juvenile rats) was “decreased” and the “strength developed in the grip test (myorelaxant effect)” value [5] was “no significant effect”. The “rearing behavior in actimetry” value [6] was “statistically decreases”, the “locomotor (ambulatory) activity in actimetry” value (Wistar kyoto (WKY) rats [7]; WKY control juvenile rats, one hour recording) was “no effect” and the “number of rearings in actimetry” value (Wistar kyoto (WKY) rats [7]; WKY juvenile rats) was “no effect”.
